Experimental data: patent publication US6977262B2, “Dihydropyrazolopyridine compounds and pharmaceutical use thereof” (Mitsubishi Pharma Corporation, priority 2001, dated 2005)

| Compound | melting point |
| --- | --- |
| N#CC1=C(c2cccs2)Nc2n[nH]cc2C1c1cccc2nonc12 (centres unmarked) [Example 171, 4-(2,1,3-Benzoxadiazol-4-yl)-5-cyano-4,7-dihydro-6-(thiophen-2-yl)-2H-pyrazolo[3,4-b]pyridine] | 230 °C |
| N#CC1=C(c2ccc3ccccc3c2)Nc2n[nH]cc2C1c1cccc2nonc12 (centres unmarked) [Example 172, 4-(2,1,3-Benzoxadiazol-4-yl)-5-cyano-4,7-dihydro-6-(naphthalen-2-yl)-2H-pyrazolo[3,4-b]pyridine] | 228 °C |
| N#CC1=C(c2ccco2)Nc2n[nH]cc2C1c1cccc2nonc12 (centres unmarked) [Example 173, 4-(2,1,3-Benzoxadiazol-4-yl)-5-cyano-6-(furan-2-yl)-4,7-dihydro-2H-pyrazolo[3,4-b]pyridine] | 237 °C |
| N#CC1=C(c2ccsc2)Nc2n[nH]cc2C1c1cccc2nonc12 (centres unmarked) [Example 174, 4-(2,1,3-Benzoxadiazol-4-yl)-5-cyano-4,7-dihydro-6-(thiophen-3-yl)-2H-pyrazolo[3,4-b]pyridine] | 242 °C |
| N#CC1=C(c2cc3ccccc3o2)Nc2n[nH]cc2C1c1cccc2nonc12 (centres unmarked) [Example 175, 6-(Benzo[b]furan-2-yl)-4-(2,1,3-benzoxadiazol-4-yl)-5-cyano-4,7-dihydro-2H-pyrazolo[3,4-b]pyridine] | > 270 °C |
| CC1=C(C#N)C(c2cccc3nonc23)c2c[nH]nc2N1 (centres unmarked) [Example 176, 4-(2,1,3-Benzoxadiazol-4-yl)-5-cyano-4,7-dihydro-6-methyl-2H-pyrazolo[3,4-b]pyridine] | 212 °C |
| CCCCC1=C(C#N)C(c2cccc3nonc23)c2c[nH]nc2N1 (centres unmarked) [Example 177, 4-(2,1,3-Benzoxadiazol-4-yl)-6-butyl-5-cyano-4,7-dihydro-2H-pyrazolo[3,4-b]pyridine] | 200 °C |
| CCCC1=C(C(=O)OCC)C(c2cccc(C)c2Cl)c2c[nH]nc2N1 (centres unmarked) [Example 178, Ethyl 4-(2-chloro-3-methylphenyl)-4,7-dihydro-6-propyl-2H-pyrazolo[3,4-b]pyridine-5-carboxylate] | 198 to 200 °C |
| CCCC1=C(C(=O)OCC)C(c2cccc(C#N)c2Cl)c2c[nH]nc2N1 (centres unmarked) [Example 180, Ethyl 4-(2-chloro-3-cyanophenyl)-4,7-dihydro-6-propyl-2H-pyrazolo[3,4-b]pyridine-5-carboxylate] | 213 to 215 °C |
| CCCC1=C(C(=O)OCC)C(c2cccc(Br)c2Br)c2c[nH]nc2N1 (centres unmarked) [Example 181, Ethyl 4-(2,3-dibromophenyl)-4,7-dihydro-6-propyl-2H-pyrazolo[3,4-b]pyridine-5-carboxylate] | 180 to 183 °C (dec.) |
| CCCC1=C(C(=O)OCC)C(c2cccc(C#N)c2Br)c2c[nH]nc2N1 (centres unmarked) [Example 183, Ethyl 4-(2-bromo-3-cyanophenyl)-4,7-dihydro-6-propyl-2H-pyrazolo[3,4-b]pyridine-5-carboxylate] | 210 to 212 °C (dec.) |
| CCCC1=C(C#N)C(c2cccc(C#N)c2Cl)c2c[nH]nc2N1 (centres unmarked) [Example 184, 4-(2-Chloro-3-cyanophenyl)-5-cyano-4,7-dihydro-6-propyl-2H-pyrazolo[3,4-b]pyridine] | > 250 °C |
| CCCC1=C(C#N)C(c2cccc([N+](=O)[O-])c2Cl)c2c[nH]nc2N1 (centres unmarked) [Example 185, 4-(2-Chloro-3-nitrophenyl)-5-cyano-4,7-dihydro-6-propyl-2H-pyrazolo[3,4-b]pyridine] | 234 to 235 °C |
| CCCC1=C(C#N)C(c2cccc([N+](=O)[O-])c2Br)c2c[nH]nc2N1 (centres unmarked) [Example 189, 4-(2-Bromo-3-nitrophenyl)-5-cyano-4,7-dihydro-6-propyl-2H-pyrazolo[3,4-b]pyridine] | 250 to 255 °C (dec.) |
| CCCC1=C(C(=O)OCC)C(c2cccc(C)c2OC)c2c[nH]nc2N1 (centres unmarked) [Example 190, Ethyl 4,7-dihydro-4-(2-methoxy-3-methylphenyl)-6-propyl-2H-pyrazolo[3,4-b]pyridine-5-carboxylate] | 220 to 222 °C |
| CCCC1=C(C(=O)OCC)C(c2cccc(C#N)c2OC)c2c[nH]nc2N1 (centres unmarked) [Example 191, Ethyl 4-(3-cyano-2-methoxyphenyl)-4,7-dihydro-6-propyl-2H-pyrazolo[3,4-b]pyridine-5-carboxylate] | 220 to 222 °C |
| CCC1=C(C#N)C(c2ccccc2[N+](=O)[O-])c2c[nH]nc2N1 (centres unmarked) [Example 192, 5-Cyano-6-ethyl-4,7-dihydro-4-(2-nitrophenyl)-2H-pyrazolo[3,4-b]pyridine] | 228 to 230 °C (dec.) |
| CCC1=C(C#N)C(c2cccc(Cl)c2Cl)c2c[nH]nc2N1 (centres unmarked) [Example 193, 5-Cyano-4-(2,3-dichlorophenyl)-6-ethyl-4,7-dihydro-2H-pyrazolo[3,4-b]pyridine] | > 300 °C |
| CCC1=C(C#N)C(c2ccccc2OC)c2c[nH]nc2N1 (centres unmarked) [Example 194, 5-Cyano-6-ethyl-4,7-dihydro-4-(2-methoxyphenyl)-2H-pyrazolo[3,4-b]pyridine] | 230 to 232 °C |

| Compound | melting point |
| --- | --- |
| CCC1=C(C#N)C(c2cccc(C#N)c2Cl)c2c[nH]nc2N1 (centres unmarked) [Example 195, 4-(2-Chloro-3-cyanophenyl)-5-cyano-6-ethyl-4,7-dihydro-2H-pyrazolo[3,4-b]pyridine] | > 300 °C |
| CCC1=C(C#N)C(c2ccccc2Cl)c2c[nH]nc2N1 (centres unmarked) [Example 197, 4-(2-Chlorophenyl)-5-cyano-6-ethyl-4,7-dihydro-2H-pyrazolo[3,4-b]pyridine] | > 300 °C |
| CCC1=C(C#N)C(c2cccc(C#N)c2Br)c2c[nH]nc2N1 (centres unmarked) [Example 198, 4-(2-Bromo-3-cyanophenyl)-5-cyano-6-ethyl-4,7-dihydro-2H-pyrazolo[3,4-b]pyridine] | > 300 °C |
| CCC1=C(C#N)C(c2ccccc2Br)c2c[nH]nc2N1 (centres unmarked) [Example 199, 4-(2-Bromophenyl)-5-cyano-6-ethyl-4,7-dihydro-2H-pyrazolo[3,4-b]pyridine] | 250 to 253 °C (dec.) |
| CCCC1=C(C#N)C(c2cccc(C(F)(F)F)c2Cl)c2c[nH]nc2N1 (centres unmarked) [Example 201, 4-(2-Chloro-3-trifluoromethylphenyl)-5-cyano-4,7-dihydro-6-propyl-2H-pyrazolo[3,4-b]pyridine] | > 250 °C |
| N#CC1=C(c2ccccc2)Nc2n[nH]cc2C1c1cccc(C(F)(F)F)c1Cl (centres unmarked) [Example 202, 4-(2-Chloro-3-trifluoromethylphenyl)-5-cyano-4,7-dihydro-6-phenyl-2H-pyrazolo[3,4-b]pyridine] | > 250 °C |
| CC(C)C1=C(C#N)C(c2ccccc2Cl)c2c[nH]nc2N1 (centres unmarked) [Example 203, 4-(2-Chlorophenyl)-5-cyano-4,7-dihydro-6-isopropyl-2H-pyrazolo[3,4-b]pyridine] | > 250 °C |
| CCCC1=C(C(=O)OCC)C(c2ccccc2Cl)c2cnn(C(=O)OC(C)(C)C)c2N1 (centres unmarked) [Example 204, Ethyl 1-tert-butoxycarbonyl-4-(2-chlorophenyl)-4,7-dihydro-6-propyl-1H-pyrazolo[3,4-b]pyridine-5-carboxylate] | 112 to 116 °C |
| CCCC1=C(C(=O)OCC)C(c2ccccc2Cl)c2cn(C(=O)OC(C)(C)C)nc2N1 (centres unmarked) [Example 205, Ethyl 2-tert-butoxycarbonyl-4-(2-chlorophenyl)-4,7-dihydro-6-propyl-2H-pyrazolo[3,4-b]pyridine-5-carboxylate] | 144 to 147 °C |
| CCCC1=C(C(=O)OCC)C(c2ccccc2Cl)c2cn(C(=O)OC)nc2N1 (centres unmarked) [Example 207, Ethyl 4-(2-chlorophenyl)-4,7-dihydro-2-methoxycarbonyl-6-propyl-2H-pyrazolo[3,4-b]pyridine-5-carboxylate] | 141 to 143 °C |
| CCCC1=C(C(=O)OCC)C(c2ccccc2Cl)c2cnn(C(=O)OCc3ccccc3)c2N1 (centres unmarked) [Example 208, Ethyl 1-benzyloxycarbonyl-4-(2-chlorophenyl)-4,7-dihydro-6-propyl-1H-pyrazolo[3,4-b]pyridine-5-carboxylate] | 80 °C |
| CCCC1=C(C(=O)OCC)C(c2ccccc2Cl)c2cnn(C(=O)c3ccccc3)c2N1 (centres unmarked) [Example 210, Ethyl 1-benzoyl-4-(2-chlorophenyl)-4,7-dihydro-6-propyl-1H-pyrazolo[3,4-b]pyridine-5-carboxylate] | 115 °C |
| CCCC1=C(C(=O)OCC)C(c2ccccc2Cl)c2cn(C(=O)c3ccccc3)nc2N1 (centres unmarked) [Example 211, Ethyl 2-benzoyl-4-(2-chlorophenyl)-4,7-dihydro-6-propyl-2H-pyrazolo[3,4-b]pyridine-5-carboxylate] | 119 to 121 °C |
| CCCC1=C(C(=O)OCC)C(c2ccccc2Cl)c2cn(C(=O)Nc3ccccc3)nc2N1 (centres unmarked) [Example 215, Ethyl 4-(2-chlorophenyl)-4,7-dihydro-2-phenylcarbamoyl-6-propyl-2H-pyrazolo[3,4-b]pyridine-5-carboxylate] | 145 to 147 °C |
| CCCC1=C(C(=O)OCC)C(c2ccccc2Cl)c2cn(C(=O)Oc3ccccc3)nc2N1 (centres unmarked) [Example 218, Ethyl 4-(2-chlorophenyl)-4,7-dihydro-2-phenoxycarbonyl-6-propyl-2H-pyrazolo[3,4-b]pyridine-5-carboxylate] | 156 to 157 °C |
| CCCC1=C(C(=O)OCC)C(c2ccccc2Cl)c2cnn(C(=O)OCC)c2N1 (centres unmarked) [Example 219, Ethyl 4-(2-chlorophenyl)-1-ethoxycarbonyl-4,7-dihydro-6-propyl-1H-pyrazolo[3,4-b]pyridine-5-carboxylate] | 88 to 89 °C |
| CCCOC(=O)n1ncc2c1NC(CCC)=C(C(=O)OCC)C2c1ccccc1Cl (centres unmarked) [Example 221, Ethyl 4-(2-chlorophenyl)-4,7-dihydro-1-propoxycarbonyl-6-propyl-1H-pyrazolo[3,4-b]pyridine-5-carboxylate] | 66 to 68 °C |
| CCCOC(=O)n1cc2c(n1)NC(CCC)=C(C(=O)OCC)C2c1ccccc1Cl (centres unmarked) [Example 222, Ethyl 4-(2-chlorophenyl)-4,7-dihydro-2-propoxycarbonyl-6-propyl-2H-pyrazolo[3,4-b]pyridine-5-carboxylate] | 59 °C |
| CCCC1=C(C(=O)OCC)C(c2ccccc2Cl)c2cnn(C(C)=O)c2N1 (centres unmarked) [Example 224, Ethyl 1-acetyl-4-(2-chlorophenyl)-4,7-dihydro-6-propyl-1H-pyrazolo[3,4-b]pyridine-5-carboxylate] | 75 to 76 °C |
